The assay has as its target Bcl-xL. Kind of assay: Inhibition of GST fused Bcl-xL binding to biotinylated 16 mer Bak-BH3 peptide by HTRF-LANCE assay.

Molecules are shown by their SMILES.

As a reminder, the IC50 is the concentration needed to halve the response being measured. A lower IC50 goes with greater potency.

`Cc1cc(C(=O)N(c2ccccc2)c2ccccc2)nn1-c1ccccc1C(=O)N1Cc2ccccc2C[C@H]1CN(C)C` [1-(2-((S)-3-((dimethylamino)methyl)-1,2,3,4-tetrahydroisoquinoline-2-carbonyl)phenyl)-5-methyl-N,N-diphenyl-1H-pyrazole-3-carboxamide] registered a concentration for half-maximal inhibition (IC50) of 6.79 µM. On to `CC(=O)NC[C@@H]1Cc2ccccc2CN1C(=O)c1ccccc1-n1nc(C(=O)N(c2ccccc2)c2ccccc2)cc1C` [1-(2-((S)-3-(acetamidomethyl)-1,2,3,4-tetrahydroisoquinoline-2-carbonyl)phenyl)-5-methyl-N,N-diphenyl-1H-pyrazole-3-carboxamide], for which the IC50 amounted to 9.69 µM. This IC50 and that of the compound before are within 1.5-fold of each other. To `Cc1cc(C(=O)N(c2ccccc2)c2ccccc2)nn1-c1ccccc1C(=O)N1Cc2ccccc2C[C@H]1CN` [1-(2-((S)-3-(aminomethyl)-1,2,3,4-tetrahydroisoquinoline-2-carbonyl)phenyl)-5-methyl-N,N-diphenyl-1H-pyrazole-3-carboxamide] belongs 11.4 µM; to `COC[C@@H]1Cc2ccccc2CN1C(=O)c1ccccc1-n1nc(C(=O)N(c2ccccc2)c2ccccc2)cc1C` [1-(2-((S)-3-(methoxymethyl)-1,2,3,4-tetrahydroisoquinoline-2-carbonyl)phenyl)-5-methyl-N,N-diphenyl-1H-pyrazole-3-carboxamide], 5.57 µM.

`Cc1c(Br)c(C(=O)N(c2ccccc2)c2ccccc2)nn1-c1ccccc1C(=O)N1Cc2ccccc2C[C@H]1CO` [4-bromo-1-(2-((S)-3-(hydroxymethyl)-1,2,3,4-tetrahydroisoquinoline-2-carbonyl)phenyl)-5-methyl-N,N-diphenyl-1H-pyrazole-3-carboxamide] returned an IC50 of 2.41 µM. In the case of `Cc1c(Cl)c(C(=O)N(c2ccccc2)c2ccccc2)nn1-c1ccccc1C(=O)N1Cc2ccccc2C[C@H]1CO` [4-chloro-1-(2-((S)-3-(hydroxymethyl)-1,2,3,4-tetrahydroisoquinoline-2-carbonyl)phenyl)-5-methyl-N,N-diphenyl-1H-pyrazole-3-carboxamide] it was 2.28 µM. In the case of `CNC[C@@H]1Cc2ccccc2CN1C(=O)c1ccccc1-n1nc(C(=O)N(c2ccccc2)c2ccccc2)cc1C` [5-methyl-1-(2-((S)-3-((methylamino)methyl)-1,2,3,4-tetrahydroisoquinoline-2-carbonyl)phenyl)-N,N-diphenyl-1H-pyrazole-3-carboxamide] it was 12.6 µM. In the case of `CCOC(=O)[C@@H]1Cc2ccccc2CN1C(=O)c1ccccc1-n1nc(C(=O)N(c2ccccc2)c2ccccc2)cc1C` [(3S)-ethyl 2-(2-(3-(diphenylcarbamoyl)-5-methyl-1H-pyrazol-1-yl)benzoyl)-1,2,3,4-tetrahydroisoquinoline-3-carboxylate] it was 18 µM.

The record behind these values is BindingDB's records for doi:10.1016/j.bmcl.2008.10.113 (Ucb Pharma, 2008).
